Biological target: T1, human RORγ-LBD (Homo sapiens, UniProt P51449)
T1 construct: made in house; host or cells: E. coli (BL-21)
T1 sequence (P51449 262-518): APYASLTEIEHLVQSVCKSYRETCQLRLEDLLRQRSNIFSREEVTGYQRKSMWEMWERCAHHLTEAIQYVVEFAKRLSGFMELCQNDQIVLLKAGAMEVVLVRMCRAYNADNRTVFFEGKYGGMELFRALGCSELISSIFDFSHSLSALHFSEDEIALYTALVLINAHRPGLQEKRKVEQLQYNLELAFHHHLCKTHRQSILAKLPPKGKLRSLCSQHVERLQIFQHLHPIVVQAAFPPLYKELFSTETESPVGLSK
Test: ROR gamma coactivator peptide recruitment Alphascreen assay (RORγ-LBD binding to GRIP1 coactivator peptide)
Type: biochemical
Settings: 5 nM human RORγ-LBD, 30 nM 7-β-hydroxycholesterol, 50 nM biotinylated GRIP1 coactivator peptide, overnight incubation at room temperature; read-out: result (pIC50, RORγ coactivator peptide recruitment Alphascreen assay) (converted)
Summary of the method: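 Alphascreen proximity read-out after overnight room-temperature incubation, yielding pIC50 from 1-in-2 compound series (2.5% DMSO final). Mixture: 50 nM biotin-GRIP1 peptide, 30 nM 7-β-hydroxycholesterol agonist, 5 nM recombinant 6×His:Flag human RORγ-LBD (aa 262-518), 50 mM HEPES pH 7.4.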

Structure (SMILES)	IC50
O=C(CN(C(=O)c1cnn([C@H]2CC[C@@H](C(=O)O)CC2)c1C(F)(F)F)[C@H]1CC12CCCC2)c1c(Cl)cccc1Cl [Example 624, cis-4-(4-((2-(2,6-dichlorophenyl)-2-oxoethyl)((1S)-spiro[2.4]hept-1-yl)carbamoyl)-5-(trifluoromethyl)-1H-pyrazol-1-yl)cyclohexanecarboxylic acid]	102 nM
Cc1cc(Cl)c(CCN(CC2CCCCC2)C(=O)c2cnn([C@H]3CC[C@](C)(C(=O)O)CC3)c2C(F)(F)F)c(Cl)c1 [Example 514, trans-4-(4-((cyclohexylmethyl)(2-(2,6-dichloro-4-methylphenyl)ethyl)carbamoyl)-5-(trifluoromethyl)-1H-pyrazol-1-yl)-1-methylcyclohexanecarboxylic acid]	1.91 nM
CC1(C)C[C@@H](CN(CC(=O)c2c(Cl)cncc2Cl)C(=O)c2cnn([C@H]3CC[C@](C)(C(=O)O)CC3)c2C(F)(F)F)O1 [Example 686, trans-4-(4-((2-(3,5-dichloro-4-pyridinyl)-2-oxoethyl)(((2S)-4,4-dimethyl-2-oxetanyl)methyl)carbamoyl)-5-(trifluoromethyl)-1H-pyrazol-1-yl)-1-methylcyclohexanecarboxylic acid]	91.2 nM
Cc1cc(Cl)c(C(=O)CN(CC2CCCC2)C(=O)c2cnn([C@H]3CC[C@@](C)(C(=O)O)CC3)c2C(F)(F)F)c(Cl)c1 [Example 718, trans-4-(4-((cyclopentylmethyl)(2-(2,6-dichloro-4-methylphenyl)-2-oxoethyl)carbamoyl)-5-(trifluoromethyl)-1H-pyrazol-1-yl)-1-methylcyclohexanecarboxylic acid]	1.74 nM
C[C@H]1C[C@H](n2ncc(C(=O)N(CC(=O)c3c(Cl)cncc3Cl)CC3(F)CC3)c2C(F)(F)F)CC[C@H]1C(=O)O (stereo in doubt) [Example 737, (1R,2S,4R)-4-(4-((2-(3,5-dichloro-4-pyridinyl)-2-oxoethyl)((1-fluorocyclopropyl)methyl)carbamoyl)-5-(trifluoromethyl)-1H-pyrazol-1-yl)-2-methylcyclohexanecarboxylic acid]	14.1 nM
CC1(C)CC(CN(CCc2c(Cl)cncc2Cl)C(=O)c2cnn([C@H]3CC[C@H](C(=O)O)CC3)c2C(F)(F)F)C1 [Example 553, trans-4-(4-((2-(3,5-dichloro-4-pyridinyl)ethyl)((3,3-dimethylcyclobutyl)methyl)carbamoyl)-5-(trifluoromethyl)-1H-pyrazol-1-yl)cyclohexanecarboxylic acid]	2.75 nM
C[C@]1(C(=O)O)CC[C@H](n2ncc(C(=O)N(CC(=O)c3c(Cl)cncc3Cl)C[C@]34CC[C@H](CC3)O4)c2C(F)(F)F)CC1 [Example 853, trans-4-(4-((2-(3,5-dichloro-4-pyridinyl)-2-oxoethyl)((1s,4s)-7-oxabicyclo[221]hept-1-ylmethyl)carbamoyl)-5-(trifluoromethyl)-1H-pyrazol-1-yl)-1-methylcyclohex anecarboxylic acid]	17 nM
C[C@@H]1C[C@@H](n2ncc(C(=O)N(CCC(F)(F)F)CC(=O)c3c(Cl)cncc3Cl)c2C(F)(F)F)CC[C@@H]1C(=O)O [Example 766, (1S,2R,4S)-4-(4-((2-(3,5-dichloro-4-pyridinyl)-2-oxoethyl)(3,3,3-trifluoropropyl)carbamoyl)-5-(trifluoromethyl)-1H-pyrazol-1-yl)-2-methylcyclohexanecarboxylic acid]	32.4 nM
Cc1cc(Cl)c(CCN(CC(C)(C)C)C(=O)c2cnn(C3CCC(C(=O)O)CC3)c2C(F)(F)F)c(Cl)c1 (stereo in doubt) [Example 512, trans-4-(4-((2-(2,6-dichloro-4-methylphenyl)ethyl)(2,2 - dimethylpropyl)carbamoyl)-5-(trifluoromethyl)-1H-pyrazol-1-yl)cyclohexanecarboxylic acid]	7.24 nM
Cc1ncc(Cl)c(C(=O)CN(Cc2cc(F)cc(F)c2)C(=O)c2cnn([C@H]3CC[C@](C)(C(=O)O)CC3)c2C(F)(F)F)c1Cl [Example 768, trans-4-(4-((2-(3,5-dichloro-2-methyl-4-pyridinyl)-2-oxoethyl)(3,5-difluorobenzyl)carbamoyl)-5-(trifluoromethyl)-1H-pyrazol-1-yl)-1-methylcyclohexanecarboxylic acid]	3.98 nM
COc1cc(Cl)c(C(=O)CN(CC2CC(C)(C)C2)C(=O)c2cnn([C@H]3CC[C@H](C(=O)O)CC3)c2C(F)(F)F)c(Cl)c1 [Example 580, trans-4-(4-((2-(2,6-dichloro-4-methoxyphenyl)-2-oxoethyl)((3,3-dimethylcyclobutyl)methyl)carbamoyl)-5-(trifluoromethyl)-1H-pyrazol-1-yl)cyclohexanecarboxylic acid]	5.01 nM
CC(C)CCN(CC(=O)c1c(Cl)cccc1Cl)C(=O)c1cnn([C@H]2CC[C@](C)(C(=O)O)CC2)c1C(F)(F)F [Example 752, trans-4-(4-((2-(2,6-dichlorophenyl)-2-oxoethyl)(3-methylbutyl)carbamoyl)-5-(trifluoromethyl)-1H-pyrazol-1-yl)-1-methylcyclohexanecarboxylic acid]	4.79 nM
Cc1cc(Cl)c(C(=O)CN(C(=O)c2cnn([C@H]3CC[C@H](C(=O)O)CC3)c2C(F)(F)F)[C@H]2C[C@H](C(C)(C)C)C2)c(Cl)c1 [Example 536, trans-4-(4-((2-(2,6-dichloro-4-methylphenyl)-2-oxoethyl)(trans-3-(2-methyl-2-propanyl)cyclobutyl)carbamoyl)-5-(trifluoromethyl)-1H-pyrazol-1-yl)cyclohexanecarboxylic acid]	9.55 nM
C[C@]1(C(=O)O)CC[C@H](n2ncc(C(=O)N(CC(=O)c3c(Cl)cncc3Cl)C[C@H]3CCCO3)c2C(F)(F)F)CC1 [Example 808, trans-4-(4-((2-(3,5-dichloro-4-pyridinyl)-2-oxoethyl)((2R)-tetrahydro-2-furanylmethyl)carbamoyl)-5-(trifluoromethyl)-1H-pyrazol-1-yl)-1-methylcyclohexanecarboxylic acid]	186 nM
CC1(C)CC(CN(CC(=O)c2ccccc2C#N)C(=O)c2cnn([C@H]3CC[C@](C)(C(=O)O)CC3)c2C(F)(F)F)C1 [Example 604, trans-4-(4-((2-(2-cyanophenyl)-2-oxoethyl)((3,3-dimethylcyclobutyl)methyl)carbamoyl)-5-(trifluoromethyl)-1H-pyrazol-1-yl)-1-methylcyclohexanecarboxylic acid]	6610 nM
C[C@]1(C(=O)O)CC[C@H](n2ncc(C(=O)N(CC(=O)c3c(Cl)cncc3Cl)CC34CC(C3)C4)c2C(F)(F)F)CC1 [Example 854, trans-4-(4-((bicyclo[1.1.1]pent-1-ylmethyl)(2-(3,5-dichloro-4-pyridinyl)-2-oxoethyl)carbamoyl)-5-(trifluoromethyl)-1H-pyrazol-1-yl)-1-methylcyclohexanecarboxylic acid]	4.68 nM
CC1(C)CC(CN(CC(=O)c2ccccc2Br)C(=O)c2cnn([C@H]3CC[C@](C)(C(=O)O)CC3)c2C(F)(F)F)C1 [Example 589, trans-4-(4-((2-(2-bromophenyl)-2-oxoethyl)((3,3-dimethylcyclobutyl)methyl)carbamoyl)-5-(trifluoromethyl)-1H-pyrazol-1-yl)-1-methylcyclohexanecarboxylic acid]	42.7 nM

Reference: US9365522B2, “Pyrazole amide derivative” (AMGEN INC., priority 2015, dated 2016)
